From PubChem BioAssay (NCI)
Where “and” joins values, the source holds several entries; their conditions need not be identical. Equal entries are not always repeated.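 Interpolation was linear, between the two tested concentrations surrounding the appropriate level; five concentrations were tested over 48 hours in 96-well plates. The concentration for 50% growth inhibition is given as GI50. TGI: concentration producing complete growth inhibition.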

Assays:
Experiment in all cases: NCI tumour cell line growth inhibition, 48 h
K-562 leukemia = test system: K-562 leukemia
SK-MEL-28 melanoma = test system: SK-MEL-28 melanoma
MCF7 breast = test system: MCF7 breast
SK-MEL-2 melanoma = test system: SK-MEL-2 melanoma
IGROV1 ovarian = test system: IGROV1 ovarian
HS 578T breast = test system: HS 578T breast
HOP-62 NSCLC = test system: HOP-62 NSCLC
HCT-15 colon = test system: HCT-15 colon
SK-OV-3 ovarian = test system: SK-OV-3 ovarian
CCRF-CEM leukemia = test system: CCRF-CEM leukemia
MOLT-4 leukemia = test system: MOLT-4 leukemia
NCI/ADR-RES ovarian = test system: NCI/ADR-RES ovarian

SMILES	TGI (K-562 leukemia)	TGI (SK-MEL-28 melanoma)	TGI (MCF7 breast)	TGI (SK-MEL-2 melanoma)	TGI (IGROV1 ovarian)	TGI (HS 578T breast)	GI50 (HOP-62 NSCLC)	TGI (HOP-62 NSCLC)	TGI (HCT-15 colon)	TGI (SK-OV-3 ovarian)	TGI (CCRF-CEM leukemia)	TGI (MOLT-4 leukemia)	TGI (NCI/ADR-RES ovarian)
COC(=O)C1OC(O[C@H]2CC[C@]3(C)[C@H]4CC=C5[C@@H]6CC(C)(C)CC[C@]6(C(=O)OC6OCC(O)C(O)C6OC6OC(C)C(OC7OCC(O)C(OC8OCC(O)C(O)C8O)C7O)C(OC7OCC(O)C(O)C7O)C6O)CC[C@@]5(C)[C@]4(C)CC[C@H]3C2(C)C)C(O)C(OC2OCC(O)C(O)C2O)C1O (some centres undefined)	14.9 µM and 19.1 µM	4.02 µM and 6.16 µM	> 84.5 µM and 20.9 µM	9.16 µM and 7.73 µM	> 100 µM and 24.9 µM	> 100 µM and 33.9 µM	4.76 µM and 10.9 µM	17.8 µM and 23.7 µM	> 100 µM and 35.2 µM	> 100 µM and 27.8 µM	> 100 µM and 30.2 µM	27.6 µM and 28.4 µM	> 100 µM and 21 µM
CCN(CC)c1ccc2cc(C(=O)Nc3ccccc3)c(=N)oc2c1	> 100 µM	> 100 µM	> 100 µM	> 100 µM	> 100 µM	> 100 µM	–	> 100 µM	> 100 µM	> 100 µM	> 100 µM	> 100 µM	> 100 µM
CN(C)P(=O)(Oc1ccc(CC(NC(=O)OCc2ccccc2)C(=O)OCc2ccccc2)cc1)N(C)C (centres undefined)	64.1 µM	34.4 µM	31.6 µM	31.5 µM	32.9 µM	67.5 µM	–	31.7 µM	33 µM	33.2 µM	7.56 µM	13.7 µM	36.2 µM
CC(C)(C)Nc1noc(=O)n1C(C)(C)C	> 100 µM	> 100 µM	> 100 µM	> 100 µM	> 100 µM	> 100 µM	–	> 100 µM	> 100 µM	> 100 µM	> 100 µM	> 100 µM	> 100 µM
O=C(CSc1nc2[nH]ncc2c(=O)[nH]1)c1ccc(Cl)cc1	> 100 µM	> 100 µM	> 100 µM	> 100 µM	> 100 µM	> 100 µM	–	> 100 µM	> 100 µM	> 100 µM	> 100 µM	> 100 µM	> 100 µM
O=C1NC(=O)C2(CCCCCC2)N1	> 100 µM	> 100 µM	> 100 µM	> 100 µM	> 100 µM	> 100 µM	–	> 100 µM	> 100 µM	> 100 µM	> 100 µM	> 100 µM	> 100 µM
CCc1n[nH]c(=O)n1/N=C/c1ccc(C)cc1	> 100 µM	> 100 µM	> 100 µM	> 100 µM	> 100 µM	44.3 µM	–	> 100 µM	> 100 µM	> 100 µM	> 100 µM	> 100 µM	> 100 µM
CCCCCCOc1ccc(C(=O)NO)cc1	57.7 µM	43.9 µM	> 100 µM	39 µM	23.2 µM	67.2 µM	–	38.4 µM	16.1 µM	60.3 µM	5.27 µM	18.7 µM	18.5 µM
CC(=O)Nc1ccc(-c2nc3ccccc3s2)cc1I	> 100 µM	> 100 µM	> 59.5 µM	> 100 µM	20 µM	> 100 µM	–	39 µM	> 100 µM	38.2 µM	> 100 µM	> 100 µM	> 96.3 µM
CCCCC(Sc1cc(Cl)c(C)cc1S(=O)(=O)Nc1n[nH]c(N)n1)C(=O)OC (centres undefined)	> 10 µM	> 10 µM	> 10 µM	> 10 µM	> 10 µM	> 10 µM	–	> 10 µM	> 10 µM	> 10 µM	> 10 µM	> 10 µM	> 10 µM
CCN1C(=O)C(C)S/C1=N\NC(=O)CSc1nc2ccccc2c(=O)n1CC (centres undefined)	> 100 µM	> 100 µM	> 100 µM	> 100 µM	> 100 µM	> 100 µM	–	> 100 µM	> 100 µM	> 100 µM	> 100 µM	> 100 µM	> 100 µM
Cc1nc2c(=O)n(-c3ccccc3)c3ccccc3c2o1	> 100 µM	> 100 µM	> 100 µM	> 100 µM	> 100 µM	> 100 µM	–	> 100 µM	> 100 µM	> 100 µM	> 100 µM	> 100 µM	> 100 µM
COC(=O)c1c(O)ccc2c1c1c(n2Cc2ccc(Cl)cc2Cl)C(=O)c2ccccc2C1=O	22.5 µM	30 µM	15.9 µM	28.8 µM	26.9 µM	33.1 µM	–	23.5 µM	18.5 µM	27.6 µM	29.9 µM	7.17 µM	24.1 µM
CC(=O)CSc1c(-c2ccccc2)c(=O)n(-c2ccccc2)c(=S)n1-c1ccccc1	> 100 µM	> 100 µM	> 100 µM	> 100 µM	> 100 µM	> 100 µM	–	> 100 µM	> 100 µM	> 100 µM	> 100 µM	> 100 µM	> 100 µM
